Laboratory results as given in patent publication US6737383B1, “Herbicidal oxadiazolidines” (priority 1999, dated 2004).

Columns and labels:
[1] = system: bedstraw; test: Test B pre/postemergence bedstraw; type: in vivo, Galium aparine
How it was run: (§1)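 Response is a visual 0-to-10 score relative to untreated plants, where 0 means no effect and 10 means complete control, taken twelve to sixteen days after application. Treatments went onto soil at planting and onto foliage of 1- to 4-leaf plants, using a surfactant-containing non-phytotoxic solvent.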

[2] = system: corn; test: Test B pre/postemergence corn; type: in vivo, Zea mays
How it was run: as §1

[3] = system: surinam grass; test: Test B pre/postemergence surinam grass; type: in vivo, Brachiaria decumbens
How it was run: as §1

[4] = system: purple nutsedge; test: Test B pre/postemergence purple nutsedge; type: in vivo, Cyperus rotundus
How it was run: as §1

[5] = system: wild oat; test: Test B pre/postemergence wild oat; type: in vivo, Avena fatua
How it was run: as §1

[6] = system: pigweed; test: Test B pre/postemergence pigweed; type: in vivo, Amaranthus retroflexus
How it was run: as §1

[7] = system: velvetleaf; test: Test B pre/postemergence velvetleaf; type: in vivo, Abutilon theophrasti
How it was run: as §1

[8] = system: soybean; test: Test B pre/postemergence soybean; type: in vivo, Glycine max
How it was run: as §1

[9] = system: morningglory; test: Test B pre/postemergence morningglory; type: in vivo, Ipomoea hederacea
How it was run: as §1

[10] = system: cocklebur; test: Test B pre/postemergence cocklebur; type: in vivo, Xanthium strumarium
How it was run: as §1

[11] = system: sugar beet; test: Test B pre/postemergence sugar beet; type: in vivo, Beta vulgaris
How it was run: as §1

[12] = system: bamyardgrass; test: Test B flood test barnyardgrass; type: in vivo, Echinochloa crus-galli
How it was run: (§2)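 Read-out is a visual response score from 0 (no effect) to 10 (complete control), assigned by comparison with untreated controls. Treatment was applied at the 2-leaf stage, and plants stayed in the greenhouse for twelve to sixteen days before scoring.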

[13] = system: rice; test: Test B flood test rice; type: in vivo, Oryza sativa
How it was run: as §2

[14] = system: blackgrass; test: Test B pre/postemergence blackgrass; type: in vivo, Alopecurus myosuroides
How it was run: as §1

[15] = system: rape; test: Test B pre/postemergence rape; type: in vivo, Brassica napus
How it was run: as §1

[16] = system: smallflower flatsedge; test: Test B flood test smallflower flatsedge; type: in vivo, Cyperus difformis
How it was run: as §2

[17] = Postemergence, Rate 62 g/ha, scale 0 to 10, 0 is no effect, 10 is complete control
[18] = Postemergence, Rate 250 g/ha, scale 0 to 10, 0 no effect, 10 complete control
[19] = Preemergence, Rate 62 g/ha, scale 0 to 10 (0 no effect, 10 complete control)
[20] = Preemergence, Rate 125 g/ha, scale 0 to 10 (0 no effect, 10 complete control)
[21] = Preemergence, Rate 250 g/ha, scale of 0 to 10 where 0 is no effect and 10 is complete control
[22] = Preemergence, Rate 500 g/ha, scale 0 (no effect) to 10 (complete control)
[23] = Rate 125 g/ha, Postemergence, scale 0 to 10, 0 no effect, 10 complete control
[24] = Rate 500 g/ha, Postemergence, scale 0 to 10, 0 no effect, 10 complete control
[25] = Postemergence, Rate 125 g/ha, scale of 0 to 10 where 0 is no effect and 10 is complete control
[26] = Rate 250 g/ha, Postemergence, scale 0 to 10, 0 is no effect, 10 is complete control
[27] = Rate 500 g/ha, listed under Postemergence (flood test species), scale 0 to 10, 0 no effect, 10 complete control
[28] = Postemergence (flood test species), Rate 125 g/ha, scale of 0 to 10 where 0 is no effect and 10 is complete control
[29] = Rate 250 g/ha, Postemergence (flood test), scale 0 to 10, 0 is no effect, 10 is complete control

## CCN(CC)C(=O)n1oc(=O)n(-c2cccc3c2CCCC3)c1=O [Compound 89]
[1]; [17]
  Bedstraw plant response rating: 0
[1]; [18]
  Bedstraw plant response rating: 0
[1]; [19]
  Bedstraw plant response rating: 0
[1]; [20]
  Plant response rating, Bedstraw: 0
[1]; [21]
  Plant response rating, Bedstraw: 0
[1]; [22]
  Bedstraw plant response rating: 0
[1]; [23]
  Bedstraw plant response rating: 0
[1]; [24]
  Bedstraw plant response rating: 3
[2]; [17]
  Corn plant response rating: 0
[2]; [25]
  Corn plant response rating: 0
[2]; [18]
  Corn plant response rating: 0
[2]; [19]
  Corn plant response rating: 0
[2]; [20]
  Plant response rating, Corn: 0
[2]; [21]
  Plant response rating, Corn: 0
[2]; [22]
  Corn plant response rating: 0
[2]; [24]
  Corn plant response rating: 1
[3]; [17]
  B. signalgrass plant response rating: 0
[3]; [18]
  B. signalgrass plant response rating: 0
[3]; [19]
  B. signalgrass plant response rating: 0
[3]; [20]
  Plant response rating, B. signalgrass: 0
[3]; [21]
  Plant response rating, B. signalgrass: 0
[3]; [22]
  B. signalgrass plant response rating: 0
[3]; [23]
  B. signalgrass plant response rating: 0
[3]; Rate 500 g/ha, Postemergence, scale of 0 to 10 where 0 is no effect and 10 is complete control
  B. signalgrass plant response rating: 0
[4]; [17]
  Nutsedge plant response rating: 0
[4]; [25]
  Nutsedge plant response rating: 0
[4]; [18]
  Nutsedge plant response rating: 0
[4]; [19]
  Nutsedge plant response rating: 0
[4]; [20]
  Plant response rating, Nutsedge: 0
[4]; [21]
  Plant response rating, Nutsedge: 0
[4]; [22]
  Nutsedge plant response rating: 0
[4]; [24]
  Nutsedge plant response rating: 0
[5]; [17]
  Wild oats plant response rating: 0
[5]; [25]
  Wild oats plant response rating: 0
[5]; [19]
  Wild oats plant response rating: 0
[5]; [20]
  Plant response rating, Wild oats: 0
[5]; [21]
  Plant response rating, Wild oats: 0
[5]; [22]
  Wild oats plant response rating: 0
[5]; [26]
  Plant response rating, Wild oats: 0
[5]; [24]
  Wild oats plant response rating: 0
[6]; [17]
  Redroot pigweed plant response rating: 0
[6]; [25]
  Redroot pigweed plant response rating: 0
[6]; [19]
  Redroot pigweed plant response rating: 0
[6]; [20]
  Plant response rating, Redroot pigweed: 0
[6]; [21]
  Plant response rating, Redroot pigweed: 0
[6]; [22]
  Redroot pigweed plant response rating: 0
[6]; [26]
  Plant response rating, Redroot pigweed: 0
[6]; [24]
  Redroot pigweed plant response rating: 5
[7]; [17]
  Velvetleaf plant response rating: 0
[7]; [25]
  Velvetleaf plant response rating: 0
[7]; [19]
  Velvetleaf plant response rating: 0
[7]; [20]
  Plant response rating, Velvetleaf: 0
[7]; [21]
  Plant response rating, Velvetleaf: 0
[7]; [22]
  Velvetleaf plant response rating: 0
[7]; [26]
  Plant response rating, Velvetleaf: 0
[7]; [24]
  Velvetleaf plant response rating: 3
[8]; [17]
  Soybean plant response rating: 0
[8]; [25]
  Soybean plant response rating: 0
[8]; [19]
  Soybean plant response rating: 0
[8]; [20]
  Plant response rating, Soybean: 0
[8]; [21]
  Plant response rating, Soybean: 0
[8]; [22]
  Soybean plant response rating: 0
[8]; [26]
  Plant response rating, Soybean: 0
[8]; [24]
  Soybean plant response rating: 1
[9]; [17]
  Morningglory plant response rating: 0
[9]; [25]
  Morningglory plant response rating: 0
[9]; [18]
  Morningglory plant response rating: 0
[9]; [19]
  Morningglory plant response rating: 0
[9]; [20]
  Plant response rating, Morningglory: 0
[9]; [21]
  Plant response rating, Morningglory: 0
[9]; [22]
  Morningglory plant response rating: 0
[9]; [24]
  Morningglory plant response rating: 2
[10]; [17]
  Cocklebur plant response rating: 1
[10]; [25]
  Cocklebur plant response rating: 1
[10]; [18]
  Cocklebur plant response rating: 2
[10]; [19]
  Cocklebur plant response rating: 0
[10]; [20]
  Plant response rating, Cocklebur: 0
[10]; [21]
  Plant response rating, Cocklebur: 0
[10]; [22]
  Cocklebur plant response rating: 0
[10]; [24]
  Cocklebur plant response rating: 2
[11]; [17]
  Sugarbeets plant response rating: 0
[11]; [25]
  Sugarbeets plant response rating: 0
[11]; [19]
  Sugarbeets plant response rating: 0
[11]; [20]
  Plant response rating, Sugarbeets: 0
[11]; [21]
  Plant response rating, Sugarbeets: 0
[11]; [22]
  Sugarbeets plant response rating: 0
[11]; [26]
  Plant response rating, Sugarbeets: 0
[11]; [24]
  Sugarbeets plant response rating: 6
[12]; [17]
  Barnyardgrass plant response rating: 0
[12]; Rate 125 g/ha, Postemergence section (flood test species), scale 0 to 10, 0 no effect, 10 complete control
  Barnyardgrass plant response rating: 0
[12]; [27]
  Barnyardgrass plant response rating: 0
[12]; flood test, listed under Postemergence, Rate 250 g/ha, scale 0 to 10, 0 no effect, 10 complete control
  Barnyardgrass plant response rating: 0
[13]; [28]
  Rice plant response rating: 0
[13]; [17]
  Rice plant response rating: 0
[13]; [29]
  Plant response rating, Rice: 0
[13]; [27]
  Rice plant response rating: 0
[14]; [17]
  Blackgrass plant response rating: 0
[14]; [25]
  Blackgrass plant response rating: 0
[14]; [18]
  Blackgrass plant response rating: 0
[14]; [19]
  Blackgrass plant response rating: 0
[14]; [20]
  Plant response rating, Blackgrass: 0
[14]; [21]
  Plant response rating, Blackgrass: 0
[14]; [22]
  Blackgrass plant response rating: 0
[14]; [24]
  Blackgrass plant response rating: 0
[15]; [17]
  Rape plant response rating: 0
[15]; [25]
  Rape plant response rating: 0
[15]; [18]
  Rape plant response rating: 0
[15]; [19]
  Rape plant response rating: 0
[15]; [20]
  Plant response rating, Rape: 0
[15]; [21]
  Plant response rating, Rape: 0
[15]; [22]
  Rape plant response rating: 0
[15]; [24]
  Rape plant response rating: 0
[16]; [28]
  S. Flatsedge plant response rating: 0
[16]; [17]
  S. Flatsedge plant response rating: 0
[16]; [29]
  Plant response rating, S. Flatsedge: 0
[16]; [27]
  S. Flatsedge plant response rating: 0
